Experimental findings from patent US20090188497A1, “MEDICAL PRODUCT CONTAINING TIOTROPIUM” (Boehringer Ingelheim International GmbH, priority 2003, published 2009) are described below.

This data set is described as follows: In-use stability test of FPD, capsules in opened blister at 40° C. and 75% Rh (tests S3-S5). The class given is physicochemical. Conditions: conclusion of the tests on SPIRIVA. From the text: SPIRIVA® powder formulation in bulk and SPIRIVA® capsules from our local pharmacy were introduced to the laboratory together with the […]®. The laboratory was set up to perform in-vitro tests according to European Pharmacopoeia (EP) and US Pharmacopoeia (USP) using two Andersen cascade impactors. All analytical work where then performed according to standardized methods for Physical Tests and Determinations for Aerosols, metered-dose inhalers and dry powder inhalers described in pharmacopoeias (e.g. USP 2002<601>) using a state of the art High Performance Liquid Chromatograph (HPLC) system.
From the blister holding 5 capsules one capsule was withdrawn and the remaining 4 capsules were put 4 days into 40° C. and 75% Rh. The blister containing the 4 capsules was then put in an exicator for 2 h before tests were performed. The test was performed with 4 kPa pressure drop over the […]® at room temperature and laboratory ambient conditions.
From the blister holding 5 capsules one capsule was withdrawn and the remaining 4 capsules were put 13 days into 40° C. and 75% Rh. The blister containing the 4 capsules was then put in an exicator for 2 h before tests were performed. The test was performed with 4 kPa pressure drop over the […]® at room temperature and laboratory ambient conditions. […]

For the compound `C[N+]1(C)[C@@H]2C[C@@H](OC(=O)C(O)(c3cccs3)c3cccs3)C[C@H]1[C@@H]1O[C@@H]12` [tiotropium], the sensitivity to moisture entry is “extremely sensitive to moisture”.
